{"source": "patent US20110150795A1", "about": "“COSMETIC COMPOSITIONS COMPRISING EXOPOLYSACCHARIDES DERIVED FROM MICROBIAL MATS, AND USE THEREOF” (Innovactiv Inc., priority 2008, published 2011)", "key": {"[1]": {"system": "intracellular lipid peroxides of irradiated keratinocytes", "assay": "Lipid peroxides in UV-irradiated keratinocytes (C11-Fluor probe, flow cytometry)", "assay_type": "cell-based, human", "conditions": "50 μM; UVB 210 mJ/cm^2", "description": "This study was performed to evaluate the effect of EPSs of the invention on the relative quantification of the amount of lipid peroxides (LP) (degradation of skin lipids) in human cells exposed or not to UVA+UVB irradiation. The evaluation was obtained by using a specific fluorescent probe and fluorescence flow cytometry analysis. This method offers a great sensitivity because the fluorescence of each cell is measured and numerous cells are evaluated (10000 cells per experimental condition).\nKeratinocytes were pre-cultivated in complete SFM medium up to 100% of confluence. The culture medium was then replaced with assay medium containing or not the tested EPSS or the reference and the cells were incubated at 37° C. and 5% CO2 for 24 h. After incubation, a specific probe, fluorescent analogue of lipids (C11-Fluor) and the tested EPS or the references were incorporated and the cells were incubated at 37° C. and 5% CO2 for 45 minutes. The probe was then eliminated by rinsing with culture medium. The washing medium was replaced with culture medium containing the tested EPSs or the references. Untreated controls were carried out in parallel. The cells were irradiated at 210 mJ/cm^2 UVB. […] The fluorescence parameters were measured by flow cytometry with a FACSArray™ cytometer driven by the FACSArray™ system software (Becton-Dickinson) on 10 000 individual cells (no cell population selection). […]"}, "filaggrin (FLG) mRNA": {"system": "filaggrin (FLG) mRNA", "assay": "RT-QPCR gene expression in human keratinocytes: filaggrin", "assay_type": "cell-based", "conditions": "Table VIII (first step), 24 h", "description": "(§1) This assay was performed in order to measure the effects of the EPSs on the induction of mRNA coding for differentiation proteins (filaggrin, loricrin, involucrin) and for stratum corneum tryptic enzyme involved in desquamation (kallikrein 5, 6 and 7). The relative expression of the selected markers was assayed using the “real time quantitative polymerase chain reaction” technology (RT-QPCR).\n(§2) Keratinocytes were pre-cultivated in culture medium. At confluence, the culture medium was changed into assay medium (SFM without EGF and pituitary extract) containing or not (control) the test compound and the cells were incubated for 24 h at 37° C. and 5% CO2. At the end of the experiment, the cells were washed in PBS buffer and immediately frozen at −80° C. with 300 μl per well of Tri-reagent.\n(§3) Primers couples allowing the amplification of a specific Polymerase Chain Reactions (PCR) product from each selected marker were used: Liver glyceraldehyde 3-phosphate dehydrogenase (G3PDH) was used as a reference marker in this experiment. The total RNA extraction was performed by Tri-Reagent™ according to the protocol. […]\n(§4) Initially, the modulation of gene expression was evaluated on six EPSs at the first concentration (Table VIII). As a second step, it was evaluated on four EPSs at three concentrations (Table IX)."}, "kallikrein 5 (KLK5) mRNA": {"system": "kallikrein 5 (KLK5) mRNA", "assay": "RT-QPCR gene expression in human keratinocytes: KLK5", "assay_type": "cell-based", "conditions": "Table VIII (first step), 24 h", "description": "as §1, §2, §3, §4"}, "loricrin (LOR) mRNA": {"system": "loricrin (LOR) mRNA", "assay": "RT-QPCR gene expression in human keratinocytes: loricrin", "assay_type": "cell-based", "conditions": "Table VIII (first step), 24 h", "description": "as §1, §2, §3, §4"}, "involucrin (INV) mRNA": {"system": "involucrin (INV) mRNA", "assay": "RT-QPCR gene expression in human keratinocytes: involucrin", "assay_type": "cell-based", "conditions": "Table VIII (first step), 24 h", "description": "as §1, §2, §3, §4"}, "[2]": {"system": "kallikrein 7 (KLK7, stratum corneum chymotrypsic enzyme) mRNA", "assay": "RT-QPCR gene expression in human keratinocytes: KLK7", "assay_type": "cell-based", "conditions": "Table VIII (first step), 24 h", "description": "as §1, §2, §3, §4"}, "[3]": {"system": "kallikrein 6 (KLK6, neurosin) mRNA", "assay": "RT-QPCR gene expression in human keratinocytes: KLK6", "assay_type": "cell-based", "conditions": "Table VIII (first step), 24 h", "description": "as §1, §2, §3, §4"}, "human keratinocytes": {"system": "human keratinocytes", "assay": "Overall desquamation/differentiation gene expression profile in human keratinocytes", "assay_type": "cell-based", "conditions": "24 h", "description": "as §1, §2, §3, §4"}, "[4]": {"system": "SkinEthic reconstructed human epidermis", "assay": "Epidermal lipid synthesis (14C-acetate incorporation, TLC) in reconstructed epidermis", "assay_type": "cell-based", "conditions": "10^−6M in culture medium (systemic), 72 h", "description": "This study was performed to evaluate the effect of EPSs of the invention on lipid synthesis. Phospholipids (cellular membranes) and neutral lipids (including epidermis specific lipids) were measured separately using thin layer chromatography. SkinEthic™ reconstructed human epidermis was used for model, its composition being close to normal human epidermis.\nThe epidermal tissues were placed in 24-well plates and cultivated for 12 h in SkinEthic™ medium. The medium was then replaced by fresh medium and the tested EPSS were applied on the surface of epidermis (topical treatment), at the indicated concentrations. Three control epidermises were untreated and three reference epidermises were treated with the retinoic acid, a known stimulant of total skin lipids, in the culture medium (systemic treatment). All treatments were performed in triplicate and cultivated for 72 hours in total. After 24 h treatment, the culture medium was replaced by labelling medium (0.225 μCi/wells of [^14C] acetate) and the epidermises were treated. The labelling was carried out during a 48-hour incubation period. The Radioactive marker used was [2-14C]-Acetic acid sodium salt, Amersham CFA14 (2.04 Gbq/mmol, 55 mCi/mmol). The epidermises were washed in PBS solution and were dissociated. Then, cells were lysed by treatment with perchloric acid at 0.5 M on ice. Lipids were extracted by methanol/chloroform (2:1) and phase separation was performed by addition of PBS and chloroform after neutralisation in accordance with the procedure described by Bligh and Dyer. The radioactivity was quantified by incorporation into organic phase (lipids) with liquid scintillation (LKB 1210 Rackbeta) after chloroform evaporation. The organic phases were dried under nitrogen and thin layer chromatography (TLC; plates Merck K60) was performed by using two solvent systems: chloroform/methanol/water for Phospholipids (50:18:2.6) or hexane/ether/acetic acid for Neutral lipids (15:5.6:0.19). The various metabolites were quantified by performing a direct count of the radioactivity of the various spots on TLC plates with Phosphorlmager Cyclone™ and Multigauge software (Fujifilm)."}, "human skin explants": {"system": "human skin explants", "assay": "Antipollution activity on human skin explants (MDA assay, morphology)", "conditions": "for MDA concentration: 2 mg per explant topical", "description": "This study was performed to evaluate the antipollution activity of a cosmetic product though its effect against free radicals on normal skin. A mixture of pollutants and heavy metals was used to mimic the harmful effects of an environmental pollution (like fumes, smoke . . . ). Explants were used as a skin model in this experiment as a good model of human skin.\nPieces of human skin (27 explants) were prepared from an abdominal biopsy removed from a healthy subject during cosmetic reductive surgery. They were placed in BEM medium at 37° C. and 5% CO2. The tested EPSS were applied on the surface of epidermis (topical treatment) at the indicated concentrations (2 mg per explant). They were applied the first day (Day 0) and after one, two, three and four days (Day 1, Day 2, Day 3 and Day 4).\nAt Day 4, 30 μL of a mixture of heavy metals (Table XII) and hydrocarbon was applied on a paper disk and immediately placed on identified explants.\nAt Day 0 and Day 5, 3 explants of each batch were removed and fixed in Bouin's liquid for morphological observation. After 48 hours in Bouin medium, explants were dehydrated, embedded in paraffin and stained in Masson's Trichrome. The MDA assay (Malondialdehyde, a stable product from the radical alteration) was performed in culture medium of Day 3, 24 h after irradiation to quantify the efficiency of products against free radicals generated by pollutants."}, "[5]": {"system": "senescent human fibroblasts", "assay": "Hyaluronic acid synthesis by senescent human fibroblasts (ELISA), with or without TGFβ", "assay_type": "cell-based", "conditions": "for HA / HA % of control: 72 h", "from_the_text": "This study has been performed in order to evaluate the effects of the EPSs on the synthesis of hyaluronic acid by senescent human fibroblasts. […] These senescent cells are obtained by subcultures of normal dermal fibroblasts and a senescent phenotype is obtained from the 12th passage.\nThis effect was attributed to an increase in sensitivity of cells to EGF. Based on this observation for EGF, a similar situation could exist for other factors like TGFβ. TGFβ has the ability to trigger HA synthesis. It has been observed however, that older cells become desensitized to TGFβ. Two types of effects of EPSS have thus been tested: their direct effect on the production of HA and their possibility to restore sensitivity of the cells to TGFβ.\nSenescent fibroblasts were pre-cultivated for 24 hours until confluence. Then, the culture medium was removed and replaced by assay medium containing or not (control), the tested EPSS alone, TGFβ alone or the mix of tested EPSS with TGFβ. The cells were then cultivated for 72 hours. At the end of the incubation, the hyaluronic acid concentration was evaluated in the supernatant by a standard ELISA assay according to the manufacturer's procedures (R&D Systems DY3614) and cell viability was evaluated by using a standard MTT incorporation assay."}, "[6]": {"conditions": "skin explants without contaminant"}, "[7]": {"conditions": "culture with TGFβ section, TGFβ alone 1 · 10^−5 g/L (reference of this section)"}, "[8]": {"conditions": "culture without TGFβ section, TGFβ alone 1 · 10^−5 g/L"}}, "note": "Marks after values point to notes of the source that are not given here."}
{"molecule": "COc1ccc(O)c(C(C)(C)C)c1", "note": "[BHA]", "values": [{"measurement": "% protection (intracellular lipid peroxides)", "setting": "[1]", "value": 76, "unit": "%"}]}
{"molecule": "[Ca+2].[Cl-].[Cl-]", "note": "[CaCl2]", "values": [{"measurement": "FLG expression (control = 100)", "setting": "filaggrin (FLG) mRNA; 1.5 mM", "value": 125}, {"measurement": "KLK5 expression (control = 100)", "setting": "kallikrein 5 (KLK5) mRNA; 1.5 mM", "value": 207}, {"measurement": "LOR expression (control = 100)", "setting": "loricrin (LOR) mRNA; 1.5 mM", "value": 98}, {"measurement": "INV expression (control = 100)", "setting": "involucrin (INV) mRNA; 1.5 mM", "value": 282}, {"measurement": "KLK7 expression (control = 100)", "setting": "[2]; 1.5 mM", "value": 291}, {"measurement": "KLK6 expression (control = 100)", "setting": "[3]; 1.5 mM", "value": 110}, {"measurement": "desquamation/differentiation gene expression profile", "setting": "human keratinocytes", "value": "pro differentiation profile"}]}
{"molecule": "CC1=C(/C=C/C(C)=C/C=C/C(C)=C/C(=O)O)C(C)(C)CCC1", "note": "[Retinoic acid]", "values": [{"measurement": "FLG expression (control = 100)", "setting": "filaggrin (FLG) mRNA; 10^−7M", "value": 35}, {"measurement": "KLK5 expression (control = 100)", "setting": "kallikrein 5 (KLK5) mRNA; 10^−7M", "value": 146}, {"measurement": "LOR expression (control = 100)", "setting": "loricrin (LOR) mRNA; 10^−7M", "value": 29}, {"measurement": "INV expression (control = 100)", "setting": "involucrin (INV) mRNA; 10^−7M", "value": 79}, {"measurement": "Ceramides and cerebrosides (Cera/Cere) synthesis", "setting": "[4]", "value": "85* % Control"}, {"measurement": "Cholesterol (C) synthesis", "setting": "[4]", "value": "77* % Control"}, {"measurement": "Esterified Fatty Acids (EFA) synthesis", "setting": "[4]", "value": 133, "unit": "% Control"}, {"measurement": "Free Fatty Acids (FFA) synthesis", "setting": "[4]", "value": 76, "unit": "% Control"}, {"measurement": "Phospholipids (PL) synthesis", "setting": "[4]", "value": 105, "unit": "% Control"}, {"measurement": "Sphingomyelin (SM) synthesis", "setting": "[4]", "value": 106, "unit": "% Control"}, {"measurement": "Sulfate Cholesterol (CSO4) synthesis", "setting": "[4]", "value": 92, "unit": "% Control"}, {"measurement": "Total Lipids (TL) synthesis", "setting": "[4]", "value": "175** % Control"}, {"measurement": "Total Lipids (TL) synthesis", "setting": "[4]; listed as retinoic acid", "value": 175, "unit": "% Control"}, {"measurement": "KLK7 expression (control = 100)", "setting": "[2]; 10^−7M", "value": 268}, {"measurement": "KLK6 expression (control = 100)", "setting": "[3]; 10^−7M", "value": 315}]}
{"molecule": "Cc1c(C)c2c(c(C)c1O)CC[C@@](C)(CCC[C@H](C)CCC[C@H](C)CCCC(C)C)O2", "note": "[α tocopherol]", "values": [{"measurement": "% pollution", "setting": "human skin explants; skin explants + contaminant", "value": 24.13, "unit": "%"}, {"measurement": "% protection", "setting": "human skin explants; skin explants + contaminant", "value": 75.9, "unit": "%"}, {"measurement": "antipollution activity (conclusion of MDA assay)", "setting": "human skin explants; skin explants + contaminant", "value": "reduced pollutants activity"}, {"measurement": "MDA concentration", "setting": "human skin explants; skin explants + contaminant (heavy metals and hydrocarbon)", "value": 544.93, "unit": "pmol/mL"}, {"measurement": "% pollution", "setting": "human skin explants; [6]", "value": 0.00, "unit": "%"}, {"measurement": "MDA concentration", "setting": "human skin explants; [6]", "value": 392.28, "unit": "pmol/mL"}]}
{"molecule": "TGFβ", "values": [{"measurement": "increase of hyaluronic acid synthesis", "setting": "[5]; TGFβ at 10 ng/ml", "value": 4, "unit": "folds"}, {"measurement": "HA", "setting": "[5]; [7]", "value": 16.05, "unit": "µg/mL"}, {"measurement": "HA % of control", "setting": "[5]; [7]", "value": 100, "unit": "%"}, {"measurement": "HA", "setting": "[5]; [8]", "value": 11.73, "unit": "µg/mL"}, {"measurement": "HA % of control", "setting": "[5]; [8]", "value": "473** %"}]}
